In brackets after ≈: the same amount, converted by molar mass.
Legend:
Format in all cases: cell-based
[1] = system: Escherichia coli N10; assay: In vitro antibacterial activity, standard agar-dilution assay; details: Escherichia coli N10; agar dilution; read-out: MIC
[2] = system: Streptococcus sp group D 2041; assay: as above; details: GROUPD2041; Streptococcus sp group D 2041; agar dilution; read-out: MIC
[3] = system: Haemophilus influenzae 76; assay: as above; details: Haemophilus influenzae 76; agar dilution; read-out: MIC
[4] = system: Klebsiella pneumoniae X68; assay: as above; details: Klebsiella pneumoniae X68; agar dilution; read-out: MIC
[5] = system: Proteus morganii PR15; assay: as above; details: Morganella morganii; Proteus morganii PR15; agar dilution; read-out: MIC
[6] = system: Staphylococcus epidermidis 222; assay: as above; details: Staphylococcus epidermidis 222; agar dilution; read-out: MIC
[7] = system: Acinetobacter calcoaceticus AC12; assay: as above; details: Acinetobacter calcoaceticus AC12; agar dilution; read-out: MIC
[8] = system: Staphylococcus aureus V41; assay: as above; details: Staphylococcus aureus V41; agar dilution; read-out: MIC
[9] = system: Escherichia coli TEM; assay: as above
[10] = system: Escherichia coli EC14; assay: as above; details: Escherichia coli EC14; agar dilution; read-out: MIC
[11] = system: Shigella sonnei N9; assay: as above; details: Shigella sonnei N9; agar dilution; read-out: MIC
[12] = system: Salmonella sp. X514; assay: as above; details: Salmonella sp. X514; agar dilution; read-out: MIC
[13] = system: Staphylococcus epidermidis EPI1; assay: as above; details: Staphylococcus epidermidis EPI1; agar dilution; read-out: MIC
[14] = system: Klebsiella pneumoniae KAE; assay: as above; details: Klebsiella pneumoniae KAE; agar dilution; read-out: MIC
[15] = system: Staphylococcus aureus S13E; assay: microbe, parasite or virus in culture
[16] = system: Staphylococcus aureus X1.1; assay: In vitro antibacterial activity, standard agar-dilution assay; details: Staphylococcus aureus X1.1; agar dilution; read-out: MIC
[17] = system: Haemophilus influenzae C.L.; assay: as above; details: Haemophilus influenzae C.L.; agar dilution; read-out: MIC
[18] = system: Streptococcus faecium ATCC 9790; assay: as above; details: Enterococcus faecium, ATCC9790; Streptococcus faecium ATCC 9790; agar dilution; read-out: MIC
[19] = system: Staphylococcus aureus X400; assay: microbe, parasite or virus in culture
[20] = system: Streptococcus pneumoniae Park 1; assay: In vitro antibacterial activity, standard agar-dilution assay; details: PARK1; Streptococcus pneumoniae Park 1; agar dilution; read-out: MIC
[21] = system: Trichophyton mentagrophytes; assay: In vitro antifungal activity, standard disc-plate assay; details: disc-plate assay, read-out: MIC
[22] = system: Streptococcus pyogenes C203; assay: In vitro antibacterial activity, standard agar-dilution assay; details: Streptococcus pyogenes C203; agar dilution; read-out: MIC
[23] = system: Klebsiella pneumoniae X26; assay: as above; details: Klebsiella pneumoniae X26; agar dilution; read-out: MIC
[24] = system: Candida albicans; assay: In vitro antifungal activity, standard disc-plate assay; details: disc-plate assay, read-out: MIC

Structure (SMILES)	MIC [1]	MIC [2]	MIC [3]	MIC [4]	MIC [5]	MIC [6]	MIC [7]	MIC [8]	MIC [9]	MIC [10]	MIC [11]	MIC [12]	MIC [13]	MIC [14]	MIC [15]	MIC [16]	MIC [17]	MIC [18]	MIC [19]	MIC [20]	further results
C=C[C@@]1(C)[C@H](Cl)C[C@H]2[C@H](c3c[nH]c4cccc(c34)C2(C)C)[C@H]1N=C=S [Compound 2, Hapalindole B]	> 64 µg/mL	8 µg/mL (≈ 21.6 µM)	> 64 µg/mL	> 64 µg/mL	> 64 µg/mL	2 µg/mL (≈ 5.39 µM)	> 64 µg/mL	2 µg/mL (≈ 5.39 µM)	> 64 µg/mL	> 64 µg/mL	> 64 µg/mL	> 64 µg/mL	2 µg/mL (≈ 5.39 µM)	> 64 µg/mL	2 µg/mL (≈ 5.39 µM)	2 µg/mL (≈ 5.39 µM)	> 64 µg/mL	4 µg/mL (≈ 10.8 µM)	2 µg/mL (≈ 5.39 µM)	64 µg/mL (≈ 173 µM)	MIC [21]: > 20 µg/mL; MIC [22]: 64 µg/mL (≈ 173 µM); MIC [23]: > 64 µg/mL; MIC [24]: > 20 µg/mL
[C-]#[N+][C@@H]1[C@H]2c3c[nH]c4cccc(c34)C(C)(C)[C@H]2C[C@@H](Cl)[C@]1(C)C=C [Compound 1, hapalindole A]	4 µg/mL (≈ 11.8 µM)	16 µg/mL (≈ 47.2 µM)	4 µg/mL (≈ 11.8 µM)	> 64 µg/mL	32 µg/mL (≈ 94.4 µM)	0.06 µg/mL (≈ 0.177 µM)	2 µg/mL (≈ 5.9 µM)	4 µg/mL (≈ 11.8 µM)	4 µg/mL (≈ 11.8 µM)	8 µg/mL (≈ 23.6 µM)	8 µg/mL (≈ 23.6 µM)	8 µg/mL (≈ 23.6 µM)	2 µg/mL (≈ 5.9 µM)	> 64 µg/mL	4 µg/mL (≈ 11.8 µM)	4 µg/mL (≈ 11.8 µM)	4 µg/mL (≈ 11.8 µM)	16 µg/mL (≈ 47.2 µM)	4 µg/mL (≈ 11.8 µM)	16 µg/mL (≈ 47.2 µM)	MIC [21]: 1.25 µg/mL (≈ 3.69 µM); MIC [22]: 2 µg/mL (≈ 5.9 µM); MIC [23]: 4 µg/mL (≈ 11.8 µM); MIC [24]: 1.25 µg/mL (≈ 3.69 µM)
[C-]#[N+][C@@H]1[C@H](c2c[nH]c3ccccc23)[C@@H](C(=C)C)CC[C@]1(C)C=C [Compound 3, Hapalindole C]	> 64 µg/mL	> 64 µg/mL	16 µg/mL (≈ 52.6 µM)	> 64 µg/mL	> 64 µg/mL	16 µg/mL (≈ 52.6 µM)	2 µg/mL (≈ 6.57 µM)	16 µg/mL (≈ 52.6 µM)	64 µg/mL (≈ 210 µM)	> 64 µg/mL	> 64 µg/mL	> 64 µg/mL	8 µg/mL (≈ 26.3 µM)	> 64 µg/mL	8 µg/mL (≈ 26.3 µM)	16 µg/mL (≈ 52.6 µM)	16 µg/mL (≈ 52.6 µM)	> 64 µg/mL	16 µg/mL (≈ 52.6 µM)	> 64 µg/mL	MIC [21]: 0.625 µg/mL (≈ 2.05 µM); MIC [22]: > 64 µg/mL; MIC [23]: > 64 µg/mL; MIC [24]: 0.625 µg/mL (≈ 2.05 µM)
C=C[C@@]1(C)CC[C@H](C(=C)C)[C@@H](c2c[nH]c3ccccc23)[C@H]1N=C=S [Compound 4, Hapalindole D]	> 64 µg/mL	8 µg/mL (≈ 23.8 µM)	> 64 µg/mL	> 64 µg/mL	> 64 µg/mL	4 µg/mL (≈ 11.9 µM)	> 64 µg/mL	4 µg/mL (≈ 11.9 µM)	> 64 µg/mL	> 64 µg/mL	> 64 µg/mL	> 64 µg/mL	8 µg/mL (≈ 23.8 µM)	> 64 µg/mL	4 µg/mL (≈ 11.9 µM)	4 µg/mL (≈ 11.9 µM)	> 64 µg/mL	8 µg/mL (≈ 23.8 µM)	8 µg/mL (≈ 23.8 µM)	> 64 µg/mL	MIC [21]: > 20 µg/mL; MIC [22]: > 64 µg/mL; MIC [23]: > 64 µg/mL; MIC [24]: > 20 µg/mL
